According to ChEMBL document CHEMBL4177526, “Discovery and structure activity relationship of the first potent cryptosporidium FIKK kinase inhibitor” (Bioorg Med Chem, 2017):

Experiments:
[1] = biological target: Tyrosine-protein kinase ABL1 (Homo sapiens) (UniProt P00519); assay: Inhibition of human ABL (118 to 535 residues) assessed as residual activity at 500 nM in presence of 33P-ATP by filter binding assay relative to control
[2] = biological target: Serine/threonine-protein kinase 24 (Homo sapiens) (UniProt Q9Y6E0); assay: Inhibition of human MST3 (1 to 431 residues) assessed as residual activity at 500 nM in presence of 33P-ATP by filter binding assay relative to control
[3] = biological target: Serine/threonine-protein kinase 16 (Homo sapiens) (UniProt O75716); assay: Inhibition of human MPSK1 (1 to 305 residues) assessed as residual activity at 500 nM in presence of 33P-ATP by filter binding assay relative to control
[4] = biological target: Serine/threonine-protein kinase pim-2 (Homo sapiens) (UniProt Q9P1W9); assay: Inhibition of human PIM2 (2 to 334 residues) assessed as residual activity at 500 nM in presence of 33P-ATP by filter binding assay relative to control
[5] = biological target: Serine/threonine-protein kinase STK11 (Homo sapiens) (UniProt Q15831); assay: Inhibition of human LKB1 (1 to 433 residues) assessed as residual activity at 500 nM in presence of 33P-ATP by filter binding assay relative to control
[6] = biological target: Tyrosine-protein kinase ZAP-70 (Homo sapiens) (UniProt P43403); assay: Inhibition of human ZAP70 (1 to 619 residues) assessed as residual activity at 500 nM in presence of 33P-ATP by filter binding assay relative to control
[7] = biological target: Inhibitor of nuclear factor kappa-B kinase subunit beta (Homo sapiens) (UniProt O14920); assay: Inhibition of human IKKbeta (1 to 736 residues) assessed as residual activity at 500 nM in presence of 33P-ATP by filter binding assay relative to control
[8] = biological target: Protein kinase C gamma type (Homo sapiens) (UniProt P05129); assay: Inhibition of human PKCgamma (1 to 697 residues) assessed as residual activity at 500 nM in presence of 33P-ATP by filter binding assay relative to control
[9] = biological target: Serine/threonine-protein kinase MARK2 (Homo sapiens) (UniProt Q7KZI7); assay: Inhibition of human MARK2 (2 to 691 residues) assessed as residual activity at 500 nM in presence of 33P-ATP by filter binding assay relative to control
[10] = test system: Serine/threonine-protein kinase PAK 2 (Homo sapiens), Q13177 [T402E]; assay: Inhibition of human PAK2 T402E mutant (1 to 524 residues) assessed as residual activity at 500 nM in presence of 33P-ATP by filter binding assay relative to control
[11] = biological target: Dual specificity mitogen-activated protein kinase kinase 1 (Homo sapiens) (UniProt Q02750); assay: Inhibition of human MKK1 (2 to 393 residues) assessed as residual activity at 500 nM in presence of 33P-ATP by filter binding assay relative to control
[12] = biological target: MAP/microtubule affinity-regulating kinase 4 (Homo sapiens) (UniProt Q96L34); assay: Inhibition of human MARK4 (2 to 752 residues) assessed as residual activity at 500 nM in presence of 33P-ATP by filter binding assay relative to control
[13] = biological target: Ephrin type-B receptor 4 (Homo sapiens) (UniProt P54760); assay: Inhibition of human EPHB4 (561 to 987 residues) assessed as residual activity at 500 nM in presence of 33P-ATP by filter binding assay relative to control
[14] = biological target: Fibroblast growth factor receptor 1 (Homo sapiens) (UniProt P11362); assay: Inhibition of human FGFR1 (400 to 820 residues) assessed as residual activity at 500 nM in presence of 33P-ATP by filter binding assay relative to control
[15] = biological target: Receptor-interacting serine/threonine-protein kinase 2 (Homo sapiens) (UniProt O43353); assay: Inhibition of human RIPK2 (2 to 311 residues) at 500 nM in presence of 33P-ATP by filter binding assay relative to control
[16] = biological target: Discoidin domain-containing receptor 2 (Homo sapiens) (UniProt Q16832); assay: Inhibition of human DDR2 (467 to 854 residues) assessed as residual activity at 500 nM in presence of 33P-ATP by filter binding assay relative to control
[17] = biological target: Tau-tubulin kinase 1 (Homo sapiens) (UniProt Q5TCY1); assay: Inhibition of human TTBK1 (1 to 1321 residues) assessed as residual activity at 500 nM in presence of 33P-ATP by filter binding assay relative to control
[18] = biological target: AMPK alpha1/beta2/gamma1 (Homo sapiens) (UniProt O43741+P54619+Q13131); assay: Inhibition of human AMPKalpha1 (11 to 559 residues)/beta2 (1 to 272 residues)/gamma1 (1 to 331 residues) assessed as residual activity at 500 nM in presence of 33P-ATP by filter binding assay relative to control; format: protein-complex assay
[19] = biological target: Tyrosine-protein kinase Yes (Homo sapiens) (UniProt P07947); assay: Inhibition of human YES1 (1 to 543 residues) at 500 nM by filter binding assay relative to control
[20] = biological target: Interleukin-1 receptor-associated kinase 1 (Homo sapiens) (UniProt P51617); assay: Inhibition of human IRAK1 (1 to 712 residues) assessed as residual activity at 500 nM in presence of 33P-ATP by filter binding assay relative to control
[21] = biological target: MAP kinase-activated protein kinase 2 (Homo sapiens) (UniProt P49137); assay: Inhibition of human MAPKAPK2 (46 to 400 residues) assessed as residual activity at 500 nM in presence of 33P-ATP by filter binding assay relative to control
[22] = biological target: Homeodomain-interacting protein kinase 1 (Homo sapiens) (UniProt Q86Z02); assay: Inhibition of human HIPK1 (158 to 555 residues) assessed as residual activity at 500 nM in presence of 33P-ATP by filter binding assay relative to control
[23] = biological target: Ribosomal protein S6 kinase alpha-5 (Homo sapiens) (UniProt O75582); assay: Inhibition of human MSK1 (2 to 802 residues) assessed as residual activity at 500 nM in presence of 33P-ATP by filter binding assay relative to control
[24] = biological target: Tyrosine-protein kinase Yes (Homo sapiens) (UniProt P07947); assay: Inhibition of human YES1 (1 to 543 residues) assessed as residual activity at 500 nM in presence of 33P-ATP by filter binding assay relative to control
[25] = Ratio of EC50 for antiparasitic activity against Cryptosporidium parvum Iowa oocysts infected in human HCT8 cells to IC50 for recombinant Cryptosporidium parvum FIKK; format: functional, cell-based
[26] = biological target: Protein kinase C alpha type (Homo sapiens) (UniProt P17252); assay: Inhibition of human PKCalpha (1 to 672 residues) assessed as residual activity at 500 nM in presence of 33P-ATP by filter binding assay relative to control

Chain of Tyrosine-protein kinase Yes (Homo sapiens) (P07947 2-543 limits assumed): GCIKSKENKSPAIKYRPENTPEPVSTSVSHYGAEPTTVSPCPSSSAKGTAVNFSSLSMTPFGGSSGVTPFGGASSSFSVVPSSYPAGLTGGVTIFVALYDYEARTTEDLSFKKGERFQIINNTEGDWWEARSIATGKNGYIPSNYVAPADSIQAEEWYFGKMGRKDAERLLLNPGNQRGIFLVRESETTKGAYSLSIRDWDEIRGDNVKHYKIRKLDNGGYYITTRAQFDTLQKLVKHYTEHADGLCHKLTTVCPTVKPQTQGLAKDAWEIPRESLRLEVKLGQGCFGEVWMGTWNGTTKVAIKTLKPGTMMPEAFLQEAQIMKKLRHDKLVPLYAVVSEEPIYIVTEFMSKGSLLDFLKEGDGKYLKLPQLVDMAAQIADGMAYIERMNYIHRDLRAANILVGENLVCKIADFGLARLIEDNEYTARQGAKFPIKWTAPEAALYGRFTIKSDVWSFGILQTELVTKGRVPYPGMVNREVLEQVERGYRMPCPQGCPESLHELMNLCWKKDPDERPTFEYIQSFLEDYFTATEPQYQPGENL
Chain of AMPK alpha1/beta2/gamma1 (Homo sapiens) (O43741 whole entry, looked up, the tested form may be a part): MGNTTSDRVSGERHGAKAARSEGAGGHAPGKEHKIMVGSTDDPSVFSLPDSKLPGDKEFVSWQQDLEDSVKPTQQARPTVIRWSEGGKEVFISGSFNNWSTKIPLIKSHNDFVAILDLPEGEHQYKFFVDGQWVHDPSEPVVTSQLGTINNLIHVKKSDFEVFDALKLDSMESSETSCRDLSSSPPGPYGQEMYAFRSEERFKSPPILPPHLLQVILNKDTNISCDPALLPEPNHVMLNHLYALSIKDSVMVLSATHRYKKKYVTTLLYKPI
Chain of AMPK alpha1/beta2/gamma1 (Homo sapiens) (P54619 whole entry, looked up, the tested form may be a part): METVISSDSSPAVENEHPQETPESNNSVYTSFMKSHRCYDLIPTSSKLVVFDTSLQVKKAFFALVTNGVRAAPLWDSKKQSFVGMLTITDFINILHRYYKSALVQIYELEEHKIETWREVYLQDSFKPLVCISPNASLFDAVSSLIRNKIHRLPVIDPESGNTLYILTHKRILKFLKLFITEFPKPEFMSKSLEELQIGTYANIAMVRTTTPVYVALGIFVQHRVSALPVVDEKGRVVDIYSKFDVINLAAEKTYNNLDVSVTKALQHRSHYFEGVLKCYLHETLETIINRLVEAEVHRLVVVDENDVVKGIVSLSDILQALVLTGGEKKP
Chain of AMPK alpha1/beta2/gamma1 (Homo sapiens) (Q13131 whole entry, looked up, the tested form may be a part): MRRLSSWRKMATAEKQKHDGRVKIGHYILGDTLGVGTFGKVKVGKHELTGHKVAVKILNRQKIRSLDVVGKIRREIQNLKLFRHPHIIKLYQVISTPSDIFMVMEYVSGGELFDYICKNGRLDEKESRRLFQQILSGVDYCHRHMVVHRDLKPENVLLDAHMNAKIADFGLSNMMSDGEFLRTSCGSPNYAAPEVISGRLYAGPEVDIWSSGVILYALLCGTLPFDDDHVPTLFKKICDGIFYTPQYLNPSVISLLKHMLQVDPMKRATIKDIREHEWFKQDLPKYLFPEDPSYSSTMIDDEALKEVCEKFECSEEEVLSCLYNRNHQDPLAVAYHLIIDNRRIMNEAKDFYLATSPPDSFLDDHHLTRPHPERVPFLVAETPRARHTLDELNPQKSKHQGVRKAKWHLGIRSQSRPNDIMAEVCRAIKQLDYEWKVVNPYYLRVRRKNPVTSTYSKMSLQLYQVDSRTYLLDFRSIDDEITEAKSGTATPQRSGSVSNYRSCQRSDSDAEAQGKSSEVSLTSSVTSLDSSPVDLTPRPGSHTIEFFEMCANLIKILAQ
Chain of Serine/threonine-protein kinase PAK 2 (Homo sapiens), Q13177 [T402E] (Q13177 whole entry T402E, the tested form may be a part): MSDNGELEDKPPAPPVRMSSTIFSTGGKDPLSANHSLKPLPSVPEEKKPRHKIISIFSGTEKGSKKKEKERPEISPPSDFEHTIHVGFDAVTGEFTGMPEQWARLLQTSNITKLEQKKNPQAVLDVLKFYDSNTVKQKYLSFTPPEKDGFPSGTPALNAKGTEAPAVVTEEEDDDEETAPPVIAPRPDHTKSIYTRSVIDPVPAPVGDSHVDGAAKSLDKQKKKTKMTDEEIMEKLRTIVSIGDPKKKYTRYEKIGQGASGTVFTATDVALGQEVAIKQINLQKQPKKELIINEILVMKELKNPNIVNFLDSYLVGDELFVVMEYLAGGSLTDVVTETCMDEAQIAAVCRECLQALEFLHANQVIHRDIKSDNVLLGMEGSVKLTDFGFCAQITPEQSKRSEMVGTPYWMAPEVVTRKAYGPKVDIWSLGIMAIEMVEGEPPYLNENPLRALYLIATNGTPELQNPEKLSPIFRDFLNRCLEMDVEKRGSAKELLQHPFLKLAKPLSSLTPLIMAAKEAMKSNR
Chain of Interleukin-1 receptor-associated kinase 1 (Homo sapiens) (P51617 whole entry, looked up, the tested form may be a part): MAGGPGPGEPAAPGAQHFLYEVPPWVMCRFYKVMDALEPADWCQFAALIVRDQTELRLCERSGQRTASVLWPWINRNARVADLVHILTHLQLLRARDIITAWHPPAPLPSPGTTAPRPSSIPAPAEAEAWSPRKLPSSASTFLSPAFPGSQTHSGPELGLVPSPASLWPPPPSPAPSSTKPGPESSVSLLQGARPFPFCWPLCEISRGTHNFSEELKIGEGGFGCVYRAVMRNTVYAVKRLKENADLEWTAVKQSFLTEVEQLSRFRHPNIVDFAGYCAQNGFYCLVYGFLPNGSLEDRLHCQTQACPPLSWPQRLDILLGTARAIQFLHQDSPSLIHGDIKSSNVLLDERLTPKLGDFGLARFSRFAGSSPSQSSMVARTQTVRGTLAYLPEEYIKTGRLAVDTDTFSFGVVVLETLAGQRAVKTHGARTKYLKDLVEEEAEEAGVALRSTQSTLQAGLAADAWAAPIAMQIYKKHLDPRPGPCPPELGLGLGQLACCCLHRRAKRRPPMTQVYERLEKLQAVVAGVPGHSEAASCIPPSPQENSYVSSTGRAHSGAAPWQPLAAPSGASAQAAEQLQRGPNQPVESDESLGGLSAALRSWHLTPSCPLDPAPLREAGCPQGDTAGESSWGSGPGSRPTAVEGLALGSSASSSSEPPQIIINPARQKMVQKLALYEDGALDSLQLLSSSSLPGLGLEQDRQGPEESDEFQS
Chain of Tau-tubulin kinase 1 (Homo sapiens) (Q5TCY1 whole entry, the tested form may be a part): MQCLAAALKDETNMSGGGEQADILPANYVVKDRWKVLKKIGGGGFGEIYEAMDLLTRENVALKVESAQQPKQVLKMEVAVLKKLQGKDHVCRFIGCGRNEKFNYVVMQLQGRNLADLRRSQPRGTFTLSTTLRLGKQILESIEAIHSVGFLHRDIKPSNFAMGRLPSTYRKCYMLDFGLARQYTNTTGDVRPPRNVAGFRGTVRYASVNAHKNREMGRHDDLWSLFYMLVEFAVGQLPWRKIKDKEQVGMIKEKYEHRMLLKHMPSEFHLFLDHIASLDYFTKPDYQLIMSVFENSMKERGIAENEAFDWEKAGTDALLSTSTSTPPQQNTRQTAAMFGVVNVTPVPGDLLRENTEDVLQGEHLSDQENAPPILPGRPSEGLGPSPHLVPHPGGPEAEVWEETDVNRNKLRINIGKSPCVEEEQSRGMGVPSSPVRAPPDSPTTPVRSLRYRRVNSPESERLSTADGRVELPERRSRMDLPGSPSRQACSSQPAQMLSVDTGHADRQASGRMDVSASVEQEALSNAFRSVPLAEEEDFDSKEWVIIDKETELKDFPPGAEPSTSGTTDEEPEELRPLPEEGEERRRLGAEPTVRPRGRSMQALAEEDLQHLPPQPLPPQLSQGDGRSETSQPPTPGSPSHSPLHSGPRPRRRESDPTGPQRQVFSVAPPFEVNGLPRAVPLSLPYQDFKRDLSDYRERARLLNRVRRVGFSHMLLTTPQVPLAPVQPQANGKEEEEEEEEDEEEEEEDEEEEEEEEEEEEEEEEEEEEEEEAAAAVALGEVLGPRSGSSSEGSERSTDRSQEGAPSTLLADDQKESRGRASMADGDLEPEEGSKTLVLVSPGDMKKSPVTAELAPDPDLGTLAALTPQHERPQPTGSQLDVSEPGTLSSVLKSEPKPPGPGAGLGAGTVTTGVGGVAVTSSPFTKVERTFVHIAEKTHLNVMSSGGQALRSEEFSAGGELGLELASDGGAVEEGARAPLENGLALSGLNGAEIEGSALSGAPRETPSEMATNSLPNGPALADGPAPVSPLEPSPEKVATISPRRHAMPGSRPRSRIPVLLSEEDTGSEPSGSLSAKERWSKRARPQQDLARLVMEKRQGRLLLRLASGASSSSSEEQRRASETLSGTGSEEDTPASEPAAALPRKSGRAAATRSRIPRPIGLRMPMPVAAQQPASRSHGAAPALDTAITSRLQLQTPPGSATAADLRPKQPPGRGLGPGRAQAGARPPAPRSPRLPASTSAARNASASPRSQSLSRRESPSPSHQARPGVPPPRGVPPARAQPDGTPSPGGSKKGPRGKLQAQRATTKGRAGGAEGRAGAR

## Cc1cccc(-c2nc(N)sc2-c2ccc3ncccc3n2)c1
[1]
  Activity: 81%
[2]
  Activity: 91%
[3]
  Activity: 99%
[4]
  Activity: 101%
[5]
  Activity: 101%
[6]
  Activity: 97%
[7]
  Activity: 114%
[8]
  Activity: 103%
[9]
  Activity: 134%
[10]
  Activity: 103%
[11]
  Activity: 115%
[12]
  Activity: 116%
[13]
  Activity: 99%
[14]
  Activity: 85%
[15]
  inhibition: 70%
[16]
  Activity: 91%
[17]
  Activity: 112%
[18]
  Activity: 120%
[19]
  inhibition: 47%
[20]
  Activity: 109%
[21]
  Activity: 108%
[22]
  Activity: 106%
[23]
  Activity: 115%
[24]
  Activity: 53%
[25]
  Ratio: 12800
[26]
  Activity: 112%
